What is called stoichiometry N is a count of units in the complex or per binding partner.

Assay [1] has as its target T1, PttGSTF1 (Populus trichocarpa, UniProt A9PHH6).
T1 construct: initiator Met cleaved, residues Ala2-Ala215; 24192 Da (WT); homodimer; differs from the P. trichocarpa GSTF1 by Val33 (Ile) and Arg86 (Lys)
Briefly: spectrophotometric GSH-conjugation assay ([…] nm), Michaelis-Menten fit. The conditions noted are these: apparent Km; 0.7 mM GSH; 100 mM phosphate pH 6.5; 25°C; read-out: HNE. Type of assay: biochemical.

Assay [2] concerns the target T2, PttGSTF1 (Populus trichocarpa, UniProt A9PHH6, S13A, form not given).
T2 construct: initiator Met cleaved, residues Ala2-Ala215; 24192 Da (WT); homodimer; differs from the P. trichocarpa GSTF1 by Val33 (Ile) and Arg86 (Lys)
The description is as above. Type of assay: biochemical. The settings on record: apparent Km; 1 mM GSH; 100 mM sodium phosphate pH 7.5; 25°C; read-out: PNP-butyrate.

Assay [3] deals with T1, PttGSTF1. Described as above. Type of assay: biochemical. The settings on record: apparent Km; 1 mM GSH; 100 mM sodium phosphate pH 7.5; 25°C; read-out: PNP-butyrate.
Assay [4] concerns the target Populus tremula × P. tremuloides glutathione transferase Phi 1 (PttGSTF1) (Populus tremula × P. tremuloides). Briefly: SEC; calibrated Superdex 200 10/300, 30 mM Tris-HCl pH 8.0, 200 mM NaCl, 100 μg of purified protein injected, 0.5 ml/min; standards 6500-700,000 Da.
Assay [5] concerns the target PttGSTF1 S13A (Populus tremula × P. tremuloides). The description is as above.
In assay [6] the target is PttGSTF1 S13C (Populus tremula × P. tremuloides). The assay is described as above.

Where two headings read alike, the source gives them in different places.

T1 sequence (A9PHH6 entry or part of it): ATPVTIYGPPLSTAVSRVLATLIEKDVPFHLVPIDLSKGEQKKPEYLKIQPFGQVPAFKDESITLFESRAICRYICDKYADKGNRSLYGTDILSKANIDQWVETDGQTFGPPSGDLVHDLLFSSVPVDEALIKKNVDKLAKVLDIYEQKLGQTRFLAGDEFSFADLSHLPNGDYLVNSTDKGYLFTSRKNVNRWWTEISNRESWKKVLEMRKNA
T2 sequence (A9PHH6 entry or part of it S13A, form open): as the sequence (A9PHH6 entry or part of it) above, with S12A counted along it

Take `CCCCCC(O)/C=C/C=O` (stereo not drawn) [HNE, 4-hydroxy-2-nonenal]: the Km in assay [1] was 67.1 ± 6.6 µM.
`CCCC(=O)Oc1ccc([N+](=O)[O-])cc1` [PNP-butyrate]: the Km worked out at 1510 ± 120 µM in assay [2] and 360 ± 32.2 µM in assay [3].
“Populus tremula × P. tremuloides glutathione transferase Phi 1 (PttGSTF1) (enzyme)”: the stoichiometry N in assay [4] turned out to be 2.
In assay [5], PttGSTF1 S13A (enzyme) displayed a stoichiometry N of 2.
PttGSTF1 S13C (enzyme) yielded a stoichiometry N in assay [6] of 2.

Values taken from PMC4274894, “The poplar Phi class glutathione transferase: expression, activity and structure of GSTF1” (Frontiers in Plant Science, 2014).
